For the test, the system named is clock gene Bmall promoter in NIH3T3 cells. Put plainly: Bmall promoter luciferase reporter, influence on expression of circadian clock gene (Test Example 1). Type of test: cell-based, mouse. The following applies: Example 1, 12.5 μM in medium, NIH3T3, vs ethanol control, FIG. 1. The procedure:
The circadian rhythm regulatory agents of Examples 1 to 3 (i.e., 1,3-dihydroxy-5-n-pentadecylbenzene, alkylresorcinol-containing ethanolic bran extract, and alkylresorcinol-containing ethanolic rye extract) were evaluated for the influence on expression of circadian clock gene in accordance with the following test method.
To prepare a recombination vector, the promoter regions of a clock gene Bmall (−97 to +27 regions including the RORE sequence and the transcription initiation site) were inserted into a luciferase luminescence vector containing a PEST sequence serving as a signal for rapid degradation of expressed proteins (pGL3-dLuc, from Promega). About 5×10^5 cells of mouse fibroblast cell line NIH3T3 were inoculated into a 35 mm diameter culture dish. […]
Screening of candidate substances was performed using the culture cells. […] Then, a test substance was added to a medium containing a luciferin, (a luminescence substrate of […]), and chemiluminescence by the reporter genes was measured in real-time while continuing the cell culture. […] As a control, ethanol, which is the solvent of the test substance, was added at the same timing, and the changes in amount of luminescence were compared. Luminescence was measured for one minute at 10 minute interval using AB-2550 Kronos Dia from ATTO Corp.
In general terms: A reporter such as luciferase makes a cellular process visible.

Here are results for one compound from patent US20150306045A1, “METHOD OF REGULATING CIRCADIAN RHYTHM, AND METHOD OF PREPARING CIRCADIAN RHYTHM REGULATORY AGENT” (National Institute of Advanced Industrial Science & …, priority 2012, published 2015).

Turning to `CCCCCCCCCCCCCCCc1cc(O)cc(O)c1` [Example 1, 1,3-Dihydhroxy-5-n-pentadecylbenzene (C15:0)], the “circadian rhythm phase of Bmall expression” value is on record as “delays the circadian rhythm phase” and the “shortening of the cycle of Bmall expression rhythm” value turned out to be 0.5 h.
